For 23 compounds, TGI and GI50 results are on record in PubChem BioAssay (NCI).

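Where inhibition never reached the appropriate level, the endpoint shown equals the highest concentration tested. Otherwise, values were interpolated linearly from a five-concentration, 48-hour dose response in 96-well plates. GI50 marks 50% less growth. At the TGI there is no net growth.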

Common to all, as to experiment: growth of human tumour cells (NCI), 48 h
The test system of assay [1] is HCC-2998 colon.
The subject of assay [2] is HCT-116 colon.
Assay [3] has as its system HCT-15 colon.
The subject of assay [4] is HL-60(TB) leukemia.
Assay [5] has as its system KM12 colon.
Assay [6] has as its system MOLT-4 leukemia.
The test system of assay [7] is NCI-H226 lung.
For assay [8], the system named is NCI-H23 lung.
Assay [9] has as its system T-47D breast.
The test system of assay [10] is UACC-62 melanoma.

As for `COc1ccc(N2C(=O)/C(=C\c3cccc(Oc4ccccc4)c3)SC2c2ccccc2)cc1` (stereo unspecified), the TGI in assay [1] was > 100 µM; in assay [2], > 100 µM; in [3], > 100 µM; in assay [4], > 100 µM; in [5] it was > 100 µM; in [6] it was 74.1 µM. The TGI in [7], in [8], in [9] and in [10] was > 100 µM in each case.

For the compound `COc1ccc2nc3n(c2c1)C(c1c(Cl)cccc1Cl)SC3` (stereo unspecified), the TGI in [1], in [2], in [3], in assay [4], in assay [5] and in assay [6] was > 100 µM throughout. In addition, the TGI in assay [7], in assay [8], in assay [9] and in assay [10] was > 100 µM in each case.

On to `O=C1C(Cl)=C(N2CCN(c3ccccn3)CC2)C(=O)c2ncccc21`, for which the TGI in assay [1] came to 30.4 µM; in [2] it was 3.14 µM; in assay [3] it was 3.12 µM; in assay [4], 4.79 µM; in [5], 12.2 µM; in [6], 4.09 µM. Besides, the TGI in [7] amounted to 18.2 µM; in assay [8], 5.47 µM; in assay [9], 3.16 µM; in [10] it was 5.52 µM.

With `CCOC(=O)N1[C@@H]2CCC[C@@H]2C(=O)[C@@H]2CCC[C@@H]21`, the TGI in [1], in assay [2], in assay [3], in assay [4], in [5] and in assay [6] was > 100 µM throughout. The TGI in assay [7], in [8], in [9] and in assay [10] was > 100 µM throughout.

Take `COc1cc(C23OCC(Cc4cc5c(cc42)OCO5)C3CO)cc(OC)c1OC` (stereo unspecified): the TGI is 6.89 µM in [1]; > 100 µM in assay [2]; > 100 µM in [3]; > 50.1 µM in [4]; > 100 µM in assay [5]; > 100 µM in assay [6]. For the same compound, the TGI in [7], in [8], in assay [9] and in assay [10] was > 100 µM in each case. Also, the GI50 in assay [10] was 4.27 µM.

Consider `CN(C)c1ccc(C2ON=C(c3ccccc3)N2C23CC4CC(CC(C4)C2)C3)cc1` (stereo unspecified), for which the TGI in assay [1], in assay [2], in [3], in assay [4], in [5] and in assay [6] was > 10 µM throughout. Besides, the TGI in assay [7], in [8], in [9] and in assay [10] was > 10 µM in each case.

With `COC(=O)[C@@H]1Cc2cc(O)c(O)cc2C2(CCN(C)CC2)O1`, the TGI in assay [1], in assay [2], in assay [3], in assay [4], in [5] and in assay [6] was > 10 µM throughout. The TGI in assay [7], in assay [8], in [9] and in assay [10] was > 10 µM throughout.

With `O=c1[nH]c(=O)n(C/C=C/CBr)nc1Br`, the TGI in [1] came to 28.3 µM; in [2], 26.3 µM; in assay [3], 27.9 µM; in assay [4], 24.5 µM; in assay [5], 28.8 µM; in assay [6], 43.3 µM. Also, the TGI was found to be 27.8 µM in [7], 25.5 µM in assay [8], 28.2 µM in [9] and 27.3 µM in assay [10].

On to `COc1ccc(Nc2nc3ccccc3nc2C(=O)O)cc1OC`, for which the TGI in [1], in [2], in assay [3], in assay [4], in assay [5] and in assay [6] was > 100 µM each time. For the same compound, the TGI in [7], in assay [8], in assay [9] and in assay [10] was > 100 µM throughout.

`O=C(CN(c1ccc(S(=O)(=O)O)cc1)c1ccc(S(=O)(=O)O)cc1)Nn1cnc2ccc(S(=O)(=O)N(c3ccc(S(=O)(=O)O)cc3)c3ccc(S(=O)(=O)O)cc3)cc2c1=O`: the TGI in assay [1], in [2], in assay [3], in assay [4], in [5] and in assay [6] was > 100 µM throughout. The TGI in assay [7], in [8], in assay [9] and in assay [10] was > 100 µM each time.

Turning to `CC(=O)N=C1N(/C=C2\C(=O)Oc3ccccc3C2=O)C(=O)/C(=C/c2ccccc2Cl)N1C`, the TGI in [1], in assay [2], in assay [3], in [4], in [5] and in assay [6] was > 100 µM in each case. The TGI in [7], in assay [8], in assay [9] and in assay [10] was > 100 µM each time.

On to `c1ccc(C2=Nc3cccc4cccc(c34)N2)cc1`, for which the TGI in assay [1] was > 100 µM; in assay [2], 50.8 µM; in assay [3], > 96.1 µM; in assay [4], 8.14 µM; in assay [5], > 85.1 µM; in assay [6], > 54.8 µM. For the same compound, the TGI in assay [7] was > 100 µM; in assay [8], > 100 µM; in [9], 21.9 µM; in [10] it was > 100 µM.

On to `COc1cccc2cc(C(=O)Nc3ccccn3)c(=N)oc12`, for which the TGI in assay [1] is > 100 µM; in assay [2] it was > 100 µM; in assay [3] it was > 100 µM; in assay [4], 82.9 µM; in assay [5], > 100 µM; in assay [6] it was 10.6 µM. The TGI in [7], in assay [8], in assay [9] and in [10] was > 100 µM each time.

On to `CC[C@@H](/C=C\CCC1(C[C@@H](N)CCC=C(C)C)OCCO1)O[Si](C(C)C)(C(C)C)C(C)C`, for which the TGI in assay [1] worked out at 26 µM; in assay [2] it was 31.4 µM; in assay [3], 35.4 µM; in [4] it was 23 µM; in [5], 35.3 µM; in [6], 37.1 µM. For the same compound, the TGI in assay [7] was determined as 34.2 µM; in assay [8], 38.2 µM; in assay [9], 48.7 µM; in assay [10] it was 31.9 µM.

With `CCC1=NC(C(F)(F)F)(C(F)(F)F)N=C(/N=C(/N)N(C)C(C(C)C)P(=O)(OC(C)C)OC(C)C)O1` (stereo unspecified), the TGI in assay [1], in [2], in assay [3], in [4], in [5] and in assay [6] was > 100 µM throughout. For the same compound, the TGI in assay [7], in [8], in [9] and in [10] was > 100 µM in each case.

For the compound `CC(=O)OCC(OC(C)=O)C(OC(C)=O)C(OC(C)=O)C(/C=N\Nc1nc2ccccc2c(=O)[nH]1)=N/Nc1nc2ccccc2c(=O)[nH]1` (stereo unspecified), the TGI in assay [1], in assay [2], in assay [3], in [4], in [5] and in [6] was > 100 µM in each case. Further, the TGI in [7], in assay [8], in assay [9] and in assay [10] was > 100 µM in each case.

Regarding `Cc1ccc(-c2cc(-c3c(C)nn(C)c(=O)c3N)[nH]n2)cc1`, the TGI in assay [1], in assay [2], in [3], in assay [4], in assay [5] and in [6] was > 100 µM each time. In addition, the TGI in assay [7], in assay [8], in [9] and in assay [10] was > 100 µM each time.

Take `COc1ccc2c(CCNS(=O)(=O)c3ccccc3)c(C(C)=O)[nH]c2c1`: the TGI in assay [1], in [2], in [3], in [4], in assay [5] and in assay [6] was > 100 µM throughout. Further, the TGI was > 100 µM in assay [7], > 100 µM in [8], > 86.8 µM in assay [9] and > 100 µM in assay [10].

As for `COc1ccc(/C=C2/CCS(=O)(=O)c3ccc(C)cc3C2=O)cc1OC`, the TGI turned out to be 19.6 µM in assay [1]; 21.8 µM in assay [2]; 20.3 µM in [3]; 51.5 µM in assay [4]; 23 µM in assay [5]; 49.6 µM in [6]. In addition, the TGI came to 70.8 µM in assay [7], 27.3 µM in assay [8], 45.1 µM in [9] and 22.7 µM in assay [10].

For `COC(=O)C1C(C(=O)OC)C1(Br)CBr` (stereo unspecified), the TGI is > 100 µM in assay [1]; > 100 µM in [2]; 38.7 µM in assay [3]; > 100 µM in assay [4]; > 100 µM in assay [5]; 21 µM in assay [6]. In addition, the TGI in assay [7] was > 100 µM; in assay [8], > 100 µM; in assay [9] it was 50.4 µM; in [10] it was > 100 µM.

On to `CCN(CC)CCNc1ccc(C)c2sc3ccccc3c(=O)c12`, for which the TGI in assay [1] was 14 µM; in assay [2], 4.31 µM; in assay [3], 8.87 µM; in [4], 3.85 µM; in assay [5], 10.4 µM; in assay [6], 4.65 µM. The TGI in [7] was 11.8 µM; in assay [8], 10.3 µM; in assay [9], 19.4 µM; in assay [10], 3.68 µM.

For the compound `Cc1cc(C)n(C(=O)CSc2nnc(SCC(=O)n3nc(C)cc3C)s2)n1`, the TGI in assay [1], in assay [2], in assay [3], in assay [4], in assay [5] and in [6] was > 100 µM in each case. Besides, the TGI in [7], in assay [8], in assay [9] and in [10] was > 100 µM in each case.

As to `CCCCCCCCCc1c(O)c(O)c(CCCCCCCCC)c(CCCCCCCCC)c1CCCCCCCCC`, the TGI is > 100 µM in assay [1]; > 100 µM in assay [2]; > 100 µM in assay [3]; 50 µM in [4]; > 100 µM in assay [5]; > 100 µM in [6]. The TGI in assay [7], in assay [8], in [9] and in assay [10] was > 100 µM each time.
